Biological target: T1, Axl (Homo sapiens, UniProt P30530)
T1 construct: endogenous in cells; host or cells: HeLa cells
T1 sequence (P30530 26-894): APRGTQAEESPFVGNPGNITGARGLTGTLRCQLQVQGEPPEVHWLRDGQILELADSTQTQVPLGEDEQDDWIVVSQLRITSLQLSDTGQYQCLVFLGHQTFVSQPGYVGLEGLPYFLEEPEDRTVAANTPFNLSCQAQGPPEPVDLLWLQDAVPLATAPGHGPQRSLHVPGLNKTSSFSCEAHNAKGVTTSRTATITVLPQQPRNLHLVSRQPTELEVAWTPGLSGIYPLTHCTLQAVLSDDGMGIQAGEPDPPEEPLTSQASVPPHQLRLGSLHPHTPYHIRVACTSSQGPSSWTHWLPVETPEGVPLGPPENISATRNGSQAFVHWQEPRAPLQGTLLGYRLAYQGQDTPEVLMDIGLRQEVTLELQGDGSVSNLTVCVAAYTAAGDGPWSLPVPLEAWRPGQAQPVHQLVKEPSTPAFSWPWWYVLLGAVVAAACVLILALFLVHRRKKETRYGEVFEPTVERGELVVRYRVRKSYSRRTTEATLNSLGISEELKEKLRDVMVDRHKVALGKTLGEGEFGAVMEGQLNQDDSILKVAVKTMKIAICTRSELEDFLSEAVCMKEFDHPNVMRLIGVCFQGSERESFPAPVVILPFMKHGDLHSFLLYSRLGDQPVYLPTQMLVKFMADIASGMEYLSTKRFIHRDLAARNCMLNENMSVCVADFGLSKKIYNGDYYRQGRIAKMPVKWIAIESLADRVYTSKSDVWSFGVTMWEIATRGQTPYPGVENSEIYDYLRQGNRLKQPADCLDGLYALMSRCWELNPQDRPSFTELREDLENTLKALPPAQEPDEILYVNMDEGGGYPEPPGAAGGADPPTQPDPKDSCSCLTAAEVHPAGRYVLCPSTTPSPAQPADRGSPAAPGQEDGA
Experiment: Phospho-Akt In-Cell Western Assay (inhibition of Axl activity after Axl-antibody cross-linking)
Format: cell-based
Settings: Hela cells, phospho-Akt chemiluminescence normalized to relative cell number; compounds of formula (Ia), Table 1; read-out: IC50
Protocol: The compounds of the invention were tested in the following assay for their ability to inhibit Axl activity.
Phospho-Akt In-Cell Western Assay
• Cell culture plate: 96 well assay plate (Corning 3610), white, clear bottom, tissue-culture treated. • Cells: Hela cells. • Starvation medium: For Axl stimulation: 0.5% FCS (fetal calf serum) in DMEM, plus Axl/Fc (extracellular domain of AXL fused to immunoglobulin Fc region) (R&D, 154-AL) 500 ng/mL. • For EGF (epidermal growth factor) stimulation: 0.5% FCS in DMEM (Dulbecco's modified Eagles medium). • Poly-L-Lysine 0.01% solution (the working solution): […], dilute In PBS (phosphate buffered saline). • Axl antibody cross-linking: • 1st: Mouse anti-Axl (R&D, MAB154). • 2nd: Biotin-SP-conjugated AffiniPure goat anti-mouse IgG (H+ L) (Jackson ImmunoResearch #115-065-003). • Fixing buffer: 4% formaldehyde in PBS. • Wash buffer: 0.1% TritonX-100 in PBS. • Quenching buffer: 3% H2O2, 0.1% Azide in wash buffer, Azide and hydrogen peroxide (H2O2) are added fresh. • Blocking buffer: 5% BSA in TBST (tris buffered saline plus 0.1% Tween 20). • Primary antibody: Rabbit anti-human Phospho-Akt antibody (Cell Signaling 9271): 1×250 diluted in blocking buffer. • Secondary antibody: HRP (horse radish peroxidase)-conjugated Goat anti-Rabbit secondary, stock solution: Jackson ImmunoResearch (Goat anti-Rabbit HRP, #111-035-144) 1:1 diluted in glycerol, store at −20° C. The working solution: 1×2000 dilution of stock in blocking buffer. • Chemiluminescent working solution (Pierce, 37030): SuperSignal ELISA (enzyme linked immunosorbant assay) Pico Chemiluminescent substrate. • Crystal Violet solution: Stock: 2.5% Crystal violet in methanol, filtered and kept at ambient temperature. The working solution: dilute the stock 1:20 with PBS immediately before use. • 10% SDS: working solution: 5% SDS (sodium dodecylsulfate), diluted in PBS Methods: Day 1:
A 96 well TC (tissue culture treated) plate was coated with 10 μg/mL poly-L-Lysine at 37° C. for 30 min, washed twice with PBS, and air-dried for 5 minutes before cells were added. Hela cells were seeded at 10,000 cells/well and the cells were starved in 100 μL starvation medium containing Axl/Fc for 24 hrs.
The cells were pre-treated with test compounds by adding 100 μL of 2× test compound to the starvation medium on the cells. The cells were incubated at 37° C. for 1 hr before stimulation.
The resulting mix was warmed to 37° C. 50 μL of 5×Axl 1st/2nd of antibody cluster was added to the cells and the cells were incubated at 37° C. for 5 min.
After 5 minutes stimulation, the plate was flicked to remove medium and the plate was tapped onto paper towels. Formaldehyde (4.0% in PBS, 100 μL) was added to fix the cells and the cells were incubated at ambient temperature for 20 min without shaking.
The cells were washed with a plate washer buffer to remove the formaldehyde solution. The plate was flicked to removed excess wash buffer and tapped onto paper towels. Quenching buffer (100 μL) was added to each well and the cells were incubated at ambient temperature for 20 minutes without shaking.
The cells were washed with a plate washer buffer to remove the quenching buffer. Blocking buffer (100 μL) was added and the cells were incubated at ambient temperature for at least an hour with gentle shaking.
The cells were washed with a plate washer buffer and diluted primary antibody (50 μL) was added to each well (blocking buffer was added to the negative control wells instead). The plates were incubated overnight at 4° C. with gentle shaking.
The wash buffer was removed, diluted secondary antibody (100 μL) was added, and the cells were incubated at ambient temperature for 1 hour with gentle shaking. During the incubation, the chemiluminescent reagent was brought to ambient temperature.
The secondary antibody was removed by washing the cells 1× with wash buffer, 1× with PBS by plate washer.

Q: For `Nc1nc(Nc2ccc(C(=O)N3CCC(N4CCCC4)CC3)cc2)nn1-c1cc2c(nn1)-c1ccccc1CCC2` [Compound 22, 1-(6,7-dihydro-5H-benzo[6,7]cyclohepta[1,2-c]pyridazin-3-yl)-N^3-(4-((4-(pyrrolidin-1-yl)piperidin-1-yl)carbonyl)phenyl)-1H-1,2,4-triazole-3,5-diamine], which IC50 is on record?
A: The IC50 was under 1000 nM.

Q: For `Nc1nc(Nc2ccc3c(c2)CCC(NC2CC4CCC2C4)CC3)nn1-c1cc2c(nn1)-c1ccccc1CCC2` (centres unmarked) [Compound 23, 1-(6,7-dihydro-5H-benzo[6,7]cyclohepta[1,2-c]pyridazin-3-yl)-N^3-(7-((bicyclo[2.2.1]heptan-2-yl)amino)-6,7,8,9-tetrahydro-5H-benzo[7]annulene-2-yl)-1H-1,2,4-triazole-3,5-diamine], which IC50 is on record?
A: The IC50 was under 1000 nM.

Q: For `CN(C1CCc2ccc(Nc3nc(N)n(-c4cc5c(nn4)-c4ccccc4CCC5)n3)cc2CC1)C1CC2CCC1C2` (centres unmarked) [Compound 24, 1-(6,7-dihydro-5H-benzo[6,7]cyclohepta[1,2-c]pyridazin-3-yl)-N^3-(7-((bicyclo[2.2.1]heptan-2-yl)(methyl)amino)-6,7,8,9-tetrahydro-5H-benzo[7]annulene-2-yl)-1H-1,2,4-triazole-3,5-diamine], which IC50 is on record?
A: The IC50 was 1000 to 10000 nM.

Q: For `Nc1nc(Nc2ccc(N3CCCN(C4CCCC4)CC3)nc2)nn1-c1cc2c(nn1)-c1ccccc1CCC2` [Compound 25, 1-(6,7-dihydro-5H-benzo[6,7]cyclohepta[1,2-c]pyridazin-3-yl)-N^3-(6-(4-cyclopentyl-1,4-diazepan-1-yl)pyridin-3-yl)-1H-1,2,4-triazole-3,5-diamine], which IC50 is on record?
A: The IC50 was under 1000 nM.

Q: For `Nc1nc(Nc2cnc3c(c2)CCN(C2CCCC2)CC3)nn1-c1cc2c(nn1)-c1ccccc1CCC2` [Compound 26, 1-(6,7-dihydro-5H-benzo[6,7]cyclohepta[1,2-c]pyridazin-3-yl)-N^3-(7-cyclopentyl-6,7,8,9-tetrahydro-5H-pyrido[3,2-d]azepin-3-yl)-1H-1,2,4-triazole-3,5-diamine], which IC50 is on record?
A: The IC50 was 1000 to 10000 nM.

Q: With `CN1CCN(c2ccc(Nc3nc(N)n(-c4cc5c(nn4)-c4ccccc4CCC5)n3)cn2)CC1` [Compound 27, 1-(6,7-dihydro-5H-benzo[6,7]cyclohepta[1,2-c]pyridazin-3-yl)-N^3-(6-(4-methylpiperazin-1-yl)pyridin-3-yl)-1H-1,2,4-triazole-3,5-diamine] as the compound, how does the IC50 read?
A: The IC50 was under 1000 nM.

Q: How did the IC50 turn out when `CN1CCc2ncc(Nc3nc(N)n(-c4cc5c(nn4)-c4ccccc4CCC5)n3)cc2C1` [Compound 28, 1-(6,7-dihydro-5H-benzo[6,7]cyclohepta[1,2-c]pyridazin-3-yl)-N^3-(6-methyl-5,6,7,8-tetrahydro-1,6-naphthyridin-3-yl)-1H-1,2,4-triazole-3,5-diamine] was run?
A: Its IC50 is under 1000 nM.

Q: How did the IC50 turn out when `Nc1nc(Nc2ccc(N3CCC(N4CCCC4)CC3)nc2)nn1-c1cc2c(nn1)-c1ccccc1CCC2` [Compound 29, 1-(6,7-dihydro-5H-benzo[6,7]cyclohepta[1,2-c]pyridazin-3-yl)-N^3-(6-(4-(pyrrolidin-1-yl)piperidin-1-yl)pyridine-3-yl)-1H-1,2,4-triazole-3,5-diamine] was run?
A: Its IC50 is 1000 to 10000 nM.

Q: `CN1CCN(C2CCN(c3ccc(Nc4nc(N)n(-c5cc6c(nn5)-c5ccccc5CCC6)n4)cn3)CC2)CC1` [Compound 30, 1-(6,7-dihydro-5H-benzo[6,7]cyclohepta[1,2-c]pyridazin-3-yl)-N^3-(6-(4-(4-methylpiperazin-1-yl)piperidin-1-yl)pyridine-3-yl)-1H-1,2,4-triazole-3,5-diamine] was tested. Which IC50 did it give?
A: Its IC50 is under 1000 nM.

Q: With `CN1CCN(C(=O)C2CCc3ncc(Nc4nc(N)n(-c5cc6c(nn5)-c5ccccc5CCC6)n4)cc3C2)CC1` (centres unmarked) [Compound 31, 1-(6,7-dihydro-5H-benzo[6,7]cyclohepta[1,2-c]pyridazin-3-yl)-N^3-(6-(4-methylpiperazin-1-yl)carbonyl-5,6,7,8-tetrahydroquinolin-3-yl)-1H-1,2,4-triazole-3,5-diamine] as the compound, how does the IC50 read?
A: The IC50 was under 1000 nM.

Q: `CCN(CC)C1CCN(c2ccc(Nc3nc(N)n(-c4cc5c(nn4)-c4ccccc4CCC5)n3)cc2F)C1` (centres unmarked) [Compound 32, 1-(6,7-dihydro-5H-benzo[6,7]cyclohepta[1,2-c]pyridazin-3-yl)-N^3-(3-fluoro-4-(3-(diethylamino)pyrrolidin-1-yl)phenyl)-1H-1,2,4-triazole-3,5-diamine] was tested. Which IC50 did it give?
A: Its IC50 is under 1000 nM.

Q: Which IC50 does the source give for `Nc1nc(Nc2ccc(N3CCN(C4CC5CCC4C5)CC3)cc2)nn1-c1cc2c(nn1)-c1ccccc1CCC2` (centres unmarked) [Compound 33, 1-(6,7-dihydro-5H-benzo[6,7]cyclohepta[1,2-c]pyridazin-3-yl)-N^3-(4-(4-(bicyclo[2.2.1]heptan-2-yl)piperazin-1-yl)phenyl)-1H-1,2,4-triazole-3,5-diamine] here?
A: Its IC50 is 1000 to 10000 nM.

Q: For `CN1CCN(c2ccc(Nc3nc(N)n(-c4cc5c(nn4)-c4ccccc4CCC5)n3)cc2)CC1` [Compound 34, 1-(6,7-dihydro-5H-benzo[6,7]cyclohepta[1,2-c]pyridazin-3-yl)-N^3-(4-(4-methylpiperazin-1-yl)phenyl)-1H-1,2,4-triazole-3,5-diamine], which IC50 is on record?
A: The IC50 was under 1000 nM.

Q: How did the IC50 turn out when `CN1CCN(Cc2ccc(Nc3nc(N)n(-c4cc5c(nn4)-c4ccccc4CCC5)n3)cc2)CC1` [Compound 35, 1-(6,7-dihydro-5H-benzo[6,7]cyclohepta[1,2-c]pyridazin-3-yl)-N^3-(4-((4-methylpiperazin-1-yl)methyl)phenyl)-1H-1,2,4-triazole-3,5-diamine] was run?
A: Its IC50 is under 1000 nM.

Q: Which IC50 does the source give for `CCN(CC)C1CCN(c2ccc(Nc3nc(N)n(-c4cc5c(nn4)-c4ccccc4CCC5)n3)cc2F)CC1` [Compound 36, 1-(6,7-dihydro-5H-benzo[6,7]cyclohepta[1,2-c]pyridazin-3-yl)-N^3-(3-fluoro-4-(4-(diethylamino)piperidin-1-yl)phenyl)-1H-1,2,4-triazole-3,5-diamine] here?
A: The IC50 was under 1000 nM.

Q: Which IC50 does the source give for `Nc1nc(Nc2ccc(OCCN3CCCC3)cc2)nn1-c1ncnc2c1CCCc1ccccc1-2` [Compound 37, 1-(6,7-dihydro-5H-benzo[6,7]cyclohepta[1,2-d]pyrimidin-4-yl)-N^3-(4-(2-(pyrrolidin-1-yl)ethoxy)phenyl)-1H-1,2,4-triazole-3,5-diamine] here?
A: Its IC50 is under 1000 nM.

Q: With `Nc1nc(Nc2ccc(N3CCN(C4CC5CCC4C5)CC3)cc2)nn1-c1ncnc2c1CCCc1ccccc1-2` (centres unmarked) [Compound 38, 1-(6,7-dihydro-5H-benzo[6,7]cyclohepta[1,2-d]pyrimidin-4-yl)-N3-(4-(4-(bicyclo[2.2.1]heptan-2-yl)piperazin-1-yl)phenyl)-1H-1,2,4-triazole-3,5-diamine] as the compound, how does the IC50 read?
A: The IC50 was under 1000 nM.

Reference: patent publication US7709482B2, “Polycyclic heteroaryl substituted triazoles useful as Axl inhibitors” (Rigel Pharmaceuticals, Inc., priority 2006, dated 2010)
